Reference: the supplement of paper PMC11451515

Test system: NOMO1
Experiment: cell viability relative to DMSO control; higher = less cytotoxic
Details: 48 h
In short: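 NOMO1 or SEM (500 cells/well) or P12-Ichikawa (1000 cells/well) leukemia cells were adapted for at least four passages in each medium. They were seeded in 1536-well plates (5 μl) and pin-dosed with library compounds in DMSO over an 11-point threefold series, 47 μM to 0.79 nM. CellTiter-Glo One luminescence was read after 48 h at 37°C. Viability is the per-plate percentage relative to DMSO wells, with cell-free wells as background.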

[1] = HPLM + 10% dialyzed FBS, 0.000781 µM
[2] = HPLM + 10% dialyzed FBS, 0.00234 µM
[3] = HPLM + 10% dialyzed FBS, 0.00702 µM
[4] = HPLM + 10% dialyzed FBS, 0.0211 µM
[5] = HPLM + 10% dialyzed FBS, 0.0632 µM
[6] = HPLM + 10% dialyzed FBS, 0.19 µM
[7] = HPLM + 10% dialyzed FBS, 0.569 µM
[8] = HPLM + 10% dialyzed FBS, 1.71 µM
[9] = HPLM + 10% dialyzed FBS, 5.12 µM
[10] = HPLM + 10% dialyzed FBS, 15.4 µM
[11] = HPLM + 10% dialyzed FBS, 46.1 µM
[12] = RPMI 5 mM glucose + 10% FBS, 0.000781 µM
[13] = RPMI 5 mM glucose + 10% FBS, 0.00234 µM
[14] = RPMI 5 mM glucose + 10% FBS, 0.00702 µM
[15] = RPMI 5 mM glucose + 10% FBS, 0.0211 µM
[16] = RPMI 5 mM glucose + 10% FBS, 0.0632 µM
[17] = RPMI 5 mM glucose + 10% FBS, 0.19 µM
[18] = RPMI 5 mM glucose + 10% FBS, 0.569 µM
[19] = RPMI 5 mM glucose + 10% FBS, 1.71 µM
[20] = RPMI 5 mM glucose + 10% FBS, 5.12 µM
[21] = RPMI 5 mM glucose + 10% FBS, 15.4 µM
[22] = RPMI 5 mM glucose + 10% FBS, 46.1 µM
[23] = RPMI 5 mM glucose + 10% dialyzed FBS, 0.000781 µM
[24] = RPMI 5 mM glucose + 10% dialyzed FBS, 0.00234 µM
[25] = RPMI 5 mM glucose + 10% dialyzed FBS, 0.00702 µM
[26] = RPMI 5 mM glucose + 10% dialyzed FBS, 0.0211 µM
[27] = RPMI 5 mM glucose + 10% dialyzed FBS, 0.0632 µM
[28] = RPMI 5 mM glucose + 10% dialyzed FBS, 0.19 µM
[29] = RPMI 5 mM glucose + 10% dialyzed FBS, 0.569 µM
[30] = RPMI 5 mM glucose + 10% dialyzed FBS, 1.71 µM
[31] = RPMI 5 mM glucose + 10% dialyzed FBS, 5.12 µM
[32] = RPMI 5 mM glucose + 10% dialyzed FBS, 15.4 µM
[33] = RPMI 5 mM glucose + 10% dialyzed FBS, 46.1 µM

Structure (SMILES)	cell viability [1] [%]	cell viability [2] [%]	cell viability [3] [%]	cell viability [4] [%]	cell viability [5] [%]	cell viability [6] [%]	cell viability [7] [%]	cell viability [8] [%]	cell viability [9] [%]	cell viability [10] [%]	cell viability [11] [%]	cell viability [12] [%]	cell viability [13] [%]	cell viability [14] [%]	cell viability [15] [%]	cell viability [16] [%]	cell viability [17] [%]	cell viability [18] [%]	cell viability [19] [%]	cell viability [20] [%]	cell viability [21] [%]	cell viability [22] [%]	cell viability [23] [%]	cell viability [24] [%]	cell viability [25] [%]	cell viability [26] [%]	cell viability [27] [%]	cell viability [28] [%]	cell viability [29] [%]	cell viability [30] [%]	cell viability [31] [%]	cell viability [32] [%]	cell viability [33] [%]
COc1cccc2c1C(=O)c1c(O)c3c(c(O)c1C2=O)C[C@@](O)(C(=O)CO)C[C@@H]3O[C@H]1C[C@H](N)[C@H](O[C@H]2CCCCO2)[C@H](C)O1	124	106	100	135	117	116	117	108	43	113	63	120	128	122	128	114	128	123	125	22.9	124	101	119	116	121	115	104	124	106	123	41.7	110	102
Cc1cc(OCCC[S+](C)(=O)[O-])cc(C)c1-c1cccc(COc2ccc3c(c2)OC[C@H]3CC(=O)O)c1	93.7	112	98.7	91.3	108	97.8	103	89.9	106	92.8	67.1	96.9	95	99.2	102	92.4	99.2	107	100	98	90.6	57.3	99.2	96.7	95.9	98.4	96.1	92.6	93.7	86.4	85.3	89.3	47.1
C=C1C(=O)[C@@]23C(CC[C@@H]1[C@H]2O)[C@@]12CO[C@]3(O)[C@@H](O)[C@@H]1C(C)(C)CC[C@@H]2O (some centres not stated)	119	125	124	127	121	117	125	147	111	82	10.6	118	122	115	111	135	130	133	137	129	98.4	8.83	120	123	127	122	121	127	143	138	124	114	14
N[S+](=O)([O-])c1cc2c(cc1Cl)NC(C(Cl)Cl)N[S+]2(=O)[O-] (configuration not stated)	96.9	107	113	117	111	135	136	130	121	125	124	105	96.1	105	107	102	103	123	108	102	125	110	112	114	109	118	112	118	120	126	125	141	120
O=S(=O)([O-])CCS.[Na+]	100	141	124	131	130	112	123	44.1	38.9	46.4	37.5																						
CCN1\C=C(\C(O)=O)C(=O)C2=C1N=C(N3CCNCC3)C(=C2)F	74.8	73.4	85.3	93	88.6	82.2	86.2	84.3	46	42	20.3	78	83.9	93	83.8	81.1	85.1	79	86.4	81.4	79.1	16	55.2	91	81.6	82.5	79.2	74.1	82.6	82.5	81	76.3	20.1
O=[N+]([O-])c1ncc[nH]1	90.7	84.4	90.2	78.4	91	97.4	89.7	89.4	80.8	91.7	75.8	86.3	85.5	90.9	84.2	90.9	87.3	84.1	76.9	80.3	85.7	74	88.5	93.7	88.7	87.2	75.8	82.5	78.6	81	83.2	76.1	87.7
CN(C)C1=CC(=CC=C1)C\2=C\3C(=O)N(NC3=C/C(=O)N2C)C4=CC=CC=C4Cl	113	109	127	116	120	105	60.4	7.34	5.72	4.4	5.35	118	105	122	121	116	103	93	19.7	5.29	5.8	5.56	118	108	114	116	143	112	83.4	28.3	10.1	7.91	8.18
